Experimental data from patent US11505543B2, “4-oxo-3,4-dihydroquinazoline compounds as inhibitors of human immunodeficiency virus replication” (VIIV HEALTHCARE UK (NO.5) LIMITED, priority 2018, dated 2022).

How the values were obtained:
[1] = tested on: recombinant NL4-3 virus (nef section replaced with Renilla luciferase gene) in MT-2 cells; experiment: HIV cell culture assay (antiviral activity, luciferase readout); type: cell-based; conditions: Renilla, NL43, MT-2 cells infected for 4-5 days with recombinant NL4-3 Renilla luciferase virus, serial dilutions of compound
Description: HIV cell culture assay—MT-2 cells, 293T cells and the proviral DNA clone of NL4-3 virus were obtained from the NIH AIDS Research and Reference Reagent Program. MT-2 cells were propagated in RPMI 1640 media supplemented with 10% heat inactivated fetal bovine serum (FBS), 100 μg/ml penicillin G and up to 100 units/mL streptomycin. The 293T cells were propagated in DMEM media supplemented with 10% heat inactivated FBS, 100 μg/mL penicillin G and 100 μg/mL streptomycin. A recombinant NL4-3 proviral clone, in which a section of the nef gene was replaced with the Renilla luciferase gene, was used to make the reference virus used in these studies. The recombinant virus was prepared through transfection of the recombinant NL4-3 proviral clone into 293T cells using Transit-293 Transfection Reagent from Mirus Bio LLC (Madison, Wis.). Supernatent was harvested after 2-3 days and the amount of virus present was titered in MT-2 cells using luciferase enzyme activity as a marker by measuring luciferase enzyme activity. Luciferase was quantitated using the EnduRen Live Cell Substrate from Promega (Madison, Wis.). Antiviral activities of compounds toward the recombinant virus were quantified by measuring luciferase activity in MT-2 cells infected for 4-5 days with the recombinant virus in the presence of serial dilutions of the compound.
The 50% effective concentration (EC50) was calculated by using the exponential form of the median effect equation where (Fa)=1/[1+(ED50/drug conc.)^m] (Johnson VA, Byington RT. Infectivity Assay. In Techniques in HIV Research. ed. Aldovini A, Walker BD. 71-76. New York: Stockton Press. 1990). Curve fitting and analysis were performed with ActivityBase XE Runner software version 9.1.0.4 using model 203 (ID Business Solutions, LTD, Guildford, UK).

[2] = Compound cytotoxicity, XTT-based colorimetric assay; type: cell-based; conditions: human, uninfected MT2 cells, day 4, XTT
Description: Compound cytotoxicity and the corresponding CC50 values were determined using the same protocol as described in the antiviral assay except that uninfected cells were used. Cytotoxicity was assessed on day 4 in uninfected MT2 cells by using a XTT (2,3-bis[2-Methoxy-4-nitro-5-sulfophenyl]-2H-tetrazolium-5-carboxyanilide inner salt)-based colorimetric assay (Sigma-Aldrich, St Louis, Mo.).

SMILES: Cn1nc(NS(C)(=O)=O)c2c(Cl)ccc(-n3c([C@H](Cc4cc(F)cc(F)c4)NC(=O)Cn4nc(C(F)F)c5c4C(F)(F)[C@@H]4C[C@H]54)nc4cc(-c5cccc(S(C)(=O)=O)c5)ccc4c3=O)c21 (atropisomer, axis not shown; (aR)) [Example 54, N-((S)-1-(3-(4-chloro-1-methyl-3-(methylsulfonamido)-1H-indazol-7-yl)-7-(3-(methylsulfonyl)phenyl)-4-oxo-3,4-dihydroquinazolin-2-yl)-2-(3,5-difluorophenyl)ethyl)-2-((3bS,4aR)-3-(difluoromethyl)-5,5-difluoro-3b,4,4a,5-tetrahydro-1H-cyclopropa[3,4]cyclopenta[1,2-c]pyrazol-1-yl)acetamide]
- EC50 [1]: 0.21 nM
- CC50 at 4 day [2]: > 1000 nM

SMILES: Cn1nc(NS(C)(=O)=O)c2c(Cl)ccc(-n3c([C@H](Cc4cc(F)cc(F)c4)NC(=O)Cn4nc(C(F)F)c5c4C(F)(F)[C@@H]4C[C@H]54)nc4cc(-c5ccc(Cl)c(C(=O)O)c5)ccc4c3=O)c21 (atropisomer, axis not shown; (aR)) [Example 57]
- EC50 [1]: 17 nM
- CC50 at 4 day [2]: > 1000 nM

SMILES: COc1ccc(-c2ccc3c(=O)n(-c4ccc(Cl)c5c(NS(C)(=O)=O)nn(C)c45)c([C@H](Cc4cc(F)cc(F)c4)NC(=O)Cn4nc(C(F)F)c5c4C(F)(F)[C@@H]4C[C@H]54)nc3c2)cn1 (atropisomer, axis not shown; (aR)) [Example 58, N-((S)-1-(3-(4-chloro-1-methyl-3-(methylsulfonamido)-1H-indazol-7-yl)-7-(6-methoxypyridin-3-yl)-4-oxo-3,4-dihydroquinazolin-2-yl)-2-(3,5-difluorophenyl)ethyl)-2-((3bS,4aR)-3-(difluoromethyl)-5,5-difluoro-3b,4,4a,5-tetrahydro-1H-cyclopropa[3,4]cyclopenta[1,2-c]pyrazol-1-yl)acetamide]
- EC50 [1]: 0.34 nM
- CC50 at 4 day [2]: > 1000 nM

SMILES: CC(C)c1ccc(-c2ccc3c(=O)n(-c4ccc(Cl)c5c(NS(C)(=O)=O)nn(C)c45)c([C@H](Cc4cc(F)cc(F)c4)NC(=O)Cn4nc(C(F)F)c5c4C(F)(F)[C@@H]4C[C@H]54)nc3c2)cc1 (atropisomer, axis not shown; (aR)) [Example 59, N-((S)-1-(3-(4-chloro-1-methyl-3-(methylsulfonamido)-1H-indazol-7-yl)-7-(4-isopropylphenyl)-4-oxo-3,4-dihydroquinazolin-2-yl)-2-(3,5-difluorophenyl)ethyl)-2-((3bS,4aR)-3-(difluoromethyl)-5,5-difluoro-3b,4,4a,5-tetrahydro-1H-cyclopropa[3,4]cyclopenta[1,2-c]pyrazol-1-yl)acetamide]
- EC50 [1]: 5.3 nM
- CC50 at 4 day [2]: > 1000 nM

SMILES: Cc1nn(C)c(C)c1-c1ccc2c(=O)n(-c3ccc(Cl)c4c(NS(C)(=O)=O)nn(C)c34)c([C@H](Cc3cc(F)cc(F)c3)NC(=O)Cn3nc(C(F)F)c4c3C(F)(F)[C@@H]3C[C@H]43)nc2c1 (atropisomer, axis not shown; (aR)) [Example 60, N-((S)-1-(3-(4-chloro-1-methyl-3-(methylsulfonamido)-1H-indazol-7-yl)-4-oxo-7-(1,3,5-trimethyl-1H-pyrazol-4-yl)-3,4-dihydroquinazolin-2-yl)-2-(3,5-difluorophenyl)ethyl)-2-((3bS,4aR)-3-(difluoromethyl)-5,5-difluoro-3b,4,4a,5-tetrahydro-1H-cyclopropa[3,4]cyclopenta[1,2-c]pyrazol-1-yl)acetamide]
- EC50 [1]: 0.32 nM
- CC50 at 4 day [2]: > 1000 nM

SMILES: CNC(=O)c1ccc(-c2ccc3c(=O)n(-c4ccc(Cl)c5c(NS(C)(=O)=O)nn(C)c45)c([C@H](Cc4cc(F)cc(F)c4)NC(=O)Cn4nc(C(F)F)c5c4C(F)(F)[C@@H]4C[C@H]54)nc3c2)cc1 (atropisomer, axis not shown; (aR)) [Example 62, 4-(3-(4-chloro-1-methyl-3-(methylsulfonamido)-1H-indazol-7-yl)-2-((S)-1-(2-((3bS,4aR)-3-(difluoromethyl)-5,5-difluoro-3b,4,4a,5-tetrahydro-1H-cyclopropa[3,4]cyclopenta[1,2-c]pyrazol-1-yl)acetamido)-2-(3,5-difluorophenyl)ethyl)-4-oxo-3,4-dihydroquinazolin-7-yl)-N-methylbenzamide]
- EC50 [1]: 0.48 nM
- CC50 at 4 day [2]: > 1000 nM

SMILES: Cn1nc(NS(C)(=O)=O)c2c(Cl)ccc(-n3c([C@H](Cc4cc(F)cc(F)c4)NC(=O)Cn4nc(C(F)F)c5c4C(F)(F)[C@@H]4C[C@H]54)nc4cc(-c5ccc(Cl)cc5Cl)ccc4c3=O)c21 (atropisomer, axis not shown; (aR)) [Example 63, N-((S)-1-(3-(4-chloro-1-methyl-3-(methylsulfonamido)-1H-indazol-7-yl)-7-(2,4-dichlorophenyl)-4-oxo-3,4-dihydroquinazolin-2-yl)-2-(3,5-difluorophenyl)ethyl)-2-((3bS,4aR)-3-(difluoromethyl)-5,5-difluoro-3b,4,4a,5-tetrahydro-1H-cyclopropa[3,4]cyclopenta[1,2-c]pyrazol-1-yl)acetamide]
- EC50 [1]: 7 nM
- CC50 at 4 day [2]: > 1000 nM

SMILES: Cn1nc(NS(C)(=O)=O)c2c(Cl)ccc(-n3c([C@H](Cc4cc(F)cc(F)c4)NC(=O)Cn4nc(C(F)F)c5c4C(F)(F)[C@@H]4C[C@H]54)nc4cc(-c5cccc(F)c5F)ccc4c3=O)c21 (atropisomer, axis not shown; (aR)) [Example 68, N-((S)-1-(3-(4-chloro-1-methyl-3-(methylsulfonamido)-1H-indazol-7-yl)-7-(2,3-difluorophenyl)-4-oxo-3,4-dihydroquinazolin-2-yl)-2-(3,5-difluorophenyl)ethyl)-2-((3bS,4aR)-3-(difluoromethyl)-5,5-difluoro-3b,4,4a,5-tetrahydro-1H-cyclopropa[3,4]cyclopenta[1,2-c]pyrazol-1-yl)acetamide]
- EC50 [1]: 0.63 nM
- CC50 at 4 day [2]: > 1000 nM

SMILES: COc1c(F)cc(-c2ccc3c(=O)n(-c4ccc(Cl)c5c(NS(C)(=O)=O)nn(C)c45)c([C@H](Cc4cc(F)cc(F)c4)NC(=O)Cn4nc(C(F)F)c5c4C(F)(F)[C@@H]4C[C@H]54)nc3c2)cc1F (atropisomer, axis not shown; (aR)) [Example 70, N-((S)-1-(3-(4-chloro-1-methyl-3-(methylsulfonamido)-1H-indazol-7-yl)-7-(3,5-difluoro-4-methoxyphenyl)-4-oxo-3,4-dihydroquinazolin-2-yl)-2-(3,5-difluorophenyl)ethyl)-2-((3bS,4aR)-3-(difluoromethyl)-5,5-difluoro-3b,4,4a,5-tetrahydro-1H-cyclopropa[3,4]cyclopenta[1,2-c]pyrazol-1-yl)acetamide]
- EC50 [1]: 0.92 nM
- CC50 at 4 day [2]: > 1000 nM

SMILES: Cn1nc(NS(C)(=O)=O)c2c(Cl)ccc(-n3c([C@H](Cc4cc(F)cc(F)c4)NC(=O)Cn4nc(C(F)F)c5c4C(F)(F)[C@@H]4C[C@H]54)nc4cc(-c5cccnc5)ccc4c3=O)c21 (atropisomer, axis not shown; (aR)) [Example 71, N-((S)-1-(3-(4-chloro-1-methyl-3-(methylsulfonamido)-1H-indazol-7-yl)-4-oxo-7-(pyridin-3-yl)-3,4-dihydroquinazolin-2-yl)-2-(3,5-difluorophenyl)ethyl)-2-((3bS,4aR)-3-(difluoromethyl)-5,5-difluoro-3b,4,4a,5-tetrahydro-1H-cyclopropa[3,4]cyclopenta[1,2-c]pyrazol-1-yl)acetamide]
- EC50 [1]: 0.18 nM
- CC50 at 4 day [2]: > 1000 nM

SMILES: Cn1nc(NS(C)(=O)=O)c2c(Cl)ccc(-n3c([C@H](Cc4cc(F)cc(F)c4)NC(=O)Cn4nc(C(F)F)c5c4C(F)(F)[C@@H]4C[C@H]54)nc4cc(-c5ccc(C(=O)O)c(Cl)c5)ccc4c3=O)c21 (atropisomer, axis not shown; (aR)) [Example 75, 2-chloro-4-(3-(4-chloro-1-methyl-3-(methylsulfonamido)-1H-indazol-7-yl)-2-((S)-1-(2-((3bS,4aR)-3-(difluoromethyl)-5,5-difluoro-3b,4,4a,5-tetrahydro-1H-cyclopropa[3,4]cyclopenta[1,2-c]pyrazol-1-yl)acetamido)-2-(3,5-difluorophenyl)ethyl)-4-oxo-3,4-dihydroquinazolin-7-yl)benzoic acid]
- EC50 [1]: 29 nM
- CC50 at 4 day [2]: > 1000 nM
